Laboratory results as given in ChEMBL document CHEMBL5226282, “TLR2 Agonistic Small Molecules: Detailed Structure-Activity Relationship, Applications, and Future Prospects” (J Med Chem, 2021).
Each block holds one molecule with its values, some of them ahead of it.

Tests used:
[1] = target: Toll-like receptor 2 (Mus musculus) (UniProt Q9QUN7); assay: Agonist activity at mouse TLR2 transfected in HEK293 cells relative to control; type: cell-based; set-up: concentration or dose not given beside the values
[2] = target: Toll-like receptor 2 (Homo sapiens, UniProt O60603); assay: Agonist activity at TLR2 (unknown origin)
Toll-like receptor 2, sequence (O60603 whole entry): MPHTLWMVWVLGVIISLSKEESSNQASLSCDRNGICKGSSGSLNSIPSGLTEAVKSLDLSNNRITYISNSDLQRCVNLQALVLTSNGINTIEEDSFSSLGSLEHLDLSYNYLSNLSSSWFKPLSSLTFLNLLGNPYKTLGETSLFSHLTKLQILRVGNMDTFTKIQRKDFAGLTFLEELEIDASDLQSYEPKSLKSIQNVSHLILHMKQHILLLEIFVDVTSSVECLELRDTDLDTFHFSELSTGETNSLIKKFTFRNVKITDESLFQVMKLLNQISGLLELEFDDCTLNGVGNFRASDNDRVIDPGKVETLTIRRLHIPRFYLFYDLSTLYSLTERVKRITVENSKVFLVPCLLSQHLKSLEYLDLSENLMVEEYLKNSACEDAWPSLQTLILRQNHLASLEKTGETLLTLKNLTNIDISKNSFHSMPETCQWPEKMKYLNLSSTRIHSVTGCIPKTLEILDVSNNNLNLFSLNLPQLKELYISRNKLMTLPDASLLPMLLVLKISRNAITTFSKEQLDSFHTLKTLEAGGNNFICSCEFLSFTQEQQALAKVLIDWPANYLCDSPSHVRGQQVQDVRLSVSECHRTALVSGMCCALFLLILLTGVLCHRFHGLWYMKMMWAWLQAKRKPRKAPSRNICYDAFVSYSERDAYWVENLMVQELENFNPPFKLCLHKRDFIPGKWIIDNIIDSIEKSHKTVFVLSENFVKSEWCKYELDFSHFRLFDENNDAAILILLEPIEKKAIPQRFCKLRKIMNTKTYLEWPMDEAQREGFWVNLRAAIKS

Toll-like receptor 2 (Mus musculus), sequence (Q9QUN7 whole entry): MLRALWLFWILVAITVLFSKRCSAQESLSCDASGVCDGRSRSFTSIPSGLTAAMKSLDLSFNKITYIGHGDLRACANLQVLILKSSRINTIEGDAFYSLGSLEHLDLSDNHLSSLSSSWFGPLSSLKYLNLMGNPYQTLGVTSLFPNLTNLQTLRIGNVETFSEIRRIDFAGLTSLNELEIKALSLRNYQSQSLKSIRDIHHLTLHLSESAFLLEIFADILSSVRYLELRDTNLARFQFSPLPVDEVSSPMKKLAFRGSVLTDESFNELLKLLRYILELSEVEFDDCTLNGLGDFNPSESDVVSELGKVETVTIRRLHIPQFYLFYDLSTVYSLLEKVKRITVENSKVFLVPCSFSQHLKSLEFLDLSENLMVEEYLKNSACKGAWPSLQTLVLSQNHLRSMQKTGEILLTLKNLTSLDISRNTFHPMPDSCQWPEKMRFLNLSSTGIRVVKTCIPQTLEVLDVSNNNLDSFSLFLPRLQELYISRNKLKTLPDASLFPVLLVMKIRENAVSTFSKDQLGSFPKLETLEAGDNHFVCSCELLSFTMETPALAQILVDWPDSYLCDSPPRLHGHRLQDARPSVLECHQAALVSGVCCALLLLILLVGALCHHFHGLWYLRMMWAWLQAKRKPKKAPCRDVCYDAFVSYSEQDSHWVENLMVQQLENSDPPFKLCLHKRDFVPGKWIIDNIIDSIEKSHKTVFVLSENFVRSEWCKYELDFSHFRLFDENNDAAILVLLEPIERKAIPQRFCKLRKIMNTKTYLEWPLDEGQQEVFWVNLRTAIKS

Activity ([1]; filed as agonist): 51%
Compound: CCCCCCCCCCCCCCCC(=O)N[C@H](CSCC(COC(=O)CCCCCCCCCCCCCCC)OC(=O)CCCCCCCCCCCCCCC)C(=O)N[C@@H](CO)C(=O)N[C@@H](CCCCN)C(=O)N[C@@H](CCCCN)C(=O)N[C@@H](CCCCN)C(=O)N[C@@H](CCCCN)C(=O)O (some centres not stated)

EC50 [2]: 23000 nM
Compound: CCCCCCCCCCCCCCCC(=O)N[C@@H](SC[C@@H](COC(=O)CCCCCCCCCCCCCCC)OC(=O)CCCCCCCCCCCCCCC)C(=O)N[C@@H](CO)C(=O)N[C@@H](CCCCN)C(=O)N[C@@H](CCCCN)C(=O)N[C@@H](CCCCN)C(=O)N[C@@H](CCCCN)C(=O)N[C@@H](CO)C(=O)N[C@@H](CC(C)C)C(=O)N[C@@H](CC(C)C)C(=O)N[C@@H](CCSC)C(=O)N[C@@H](Cc1c[nH]c2ccccc12)C(=O)N[C@H](C(=O)N[C@H](C(=O)N[C@@H](CCC(N)=O)C(=O)N[C@H](C(=O)O)C(C)C)[C@@H](C)O)[C@@H](C)CC

EC50 [2]: 383 nM
Compound: CCCCCCCCCCCCCCCC(=O)OCCC[C@H](CS[C@H](N)C(=O)N[C@@H](CO)C(=O)N[C@@H](CCCCN)C(=O)N[C@@H](CCCCN)C(=O)N[C@@H](CCCCN)C(=O)N[C@@H](CCCCN)C(=O)N[C@@H](CO)C(=O)N[C@@H](CC(C)C)C(=O)N[C@@H](CC(C)C)C(=O)N[C@@H](CCSC)C(=O)N[C@@H](Cc1c[nH]c2ccccc12)C(=O)N[C@H](C(=O)N[C@H](C(=O)N[C@@H](CCC(N)=O)C(=O)N[C@H](C(=O)O)C(C)C)[C@@H](C)O)[C@@H](C)CC)OC(=O)CCCCCCCCCCCCCCC

Activity [1]: 26%
Compound: CCCCCCCCCC(=O)N[C@H](CSCC(COC(=O)CC)OC(=O)CC)C(=O)N[C@@H](CO)C(=O)N[C@@H](CCCCN)C(=O)N[C@@H](CCCCN)C(=O)N[C@@H](CCCCN)C(=O)N[C@@H](CCCCN)C(=O)O (some centres not stated)

EC50 [2]: 468 nM
Compound: CCCCCCCCCCCCCCCC(=O)OC[C@H](CS[C@H](N)C(=O)N[C@@H](CO)C(=O)N[C@@H](CCCCN)C(=O)N[C@@H](CCCCN)C(=O)N[C@@H](CCCCN)C(=O)N[C@@H](CCCCN)C(=O)N[C@@H](CO)C(=O)N[C@@H](CC(C)C)C(=O)N[C@@H](CC(C)C)C(=O)N[C@@H](CCSC)C(=O)N[C@@H](Cc1c[nH]c2ccccc12)C(=O)N[C@H](C(=O)N[C@H](C(=O)N[C@@H](CCC(N)=O)C(=O)N[C@H](C(=O)O)C(C)C)[C@@H](C)O)[C@@H](C)CC)OC(=O)CCCCCCCCCCCCCCC

EC50 [2]: 46200 nM
Compound: CCCCCCCCCCCCCCCC(=O)OCC[C@@H](CS[C@H](N)C(=O)N[C@@H](CO)C(=O)N[C@@H](CCCCN)C(=O)N[C@@H](CCCCN)C(=O)N[C@@H](CCCCN)C(=O)N[C@@H](CCCCN)C(=O)N[C@@H](CO)C(=O)N[C@@H](CC(C)C)C(=O)N[C@@H](CC(C)C)C(=O)N[C@@H](CCSC)C(=O)N[C@@H](Cc1c[nH]c2ccccc12)C(=O)N[C@H](C(=O)N[C@H](C(=O)N[C@@H](CCC(N)=O)C(=O)N[C@H](C(=O)O)C(C)C)[C@@H](C)O)[C@@H](C)CC)OC(=O)CCCCCCCCCCCCCCC

Activity ([1]; filed as agonist): > 100%
Compound: CCCCCCCCCCCCCCCC(=O)OCC(CSC[C@@H](NC(=O)CCCCCCCCCCCCC)C(=O)N[C@@H](CO)C(=O)N[C@@H](CCCCN)C(=O)N[C@@H](CCCCN)C(=O)N[C@@H](CCCCN)C(=O)N[C@@H](CCCCN)C(=O)O)OC(=O)CCCCCCCCCCCCCCC (some centres not stated)

Activity [1]: 11%
Compound: CCCCCCCCCC(=O)N[C@H](CSCC(COC(=O)CCCCCCC)OC(=O)CCCCCCC)C(=O)N[C@@H](CO)C(=O)N[C@@H](CCCCN)C(=O)N[C@@H](CCCCN)C(=O)N[C@@H](CCCCN)C(=O)N[C@@H](CCCCN)C(=O)O (some centres not stated)

Activity [1]: 26%
Compound: CCCCCCCCCCCCCCCC(=O)N[C@H](CSCC(COC(=O)CC)OC(=O)CC)C(=O)N[C@@H](CO)C(=O)N[C@@H](CCCCN)C(=O)N[C@@H](CCCCN)C(=O)N[C@@H](CCCCN)C(=O)N[C@@H](CCCCN)C(=O)O (some centres not stated)

Activity [1]: 0%
Compound: CCCCCCCCCCCCCCCC(=O)N[C@H](CSCC(COC(=O)CCCCCCC)OC(=O)CCCCCCC)C(=O)N[C@@H](CO)C(=O)N[C@@H](CCCCN)C(=O)N[C@@H](CCCCN)C(=O)N[C@@H](CCCCN)C(=O)N[C@@H](CCCCN)C(=O)O (some centres not stated)

Activity [1]: 0%
Compound: CCC(=O)OCC(CSC[C@@H](NC(=O)Cc1ccccc1)C(=O)N[C@@H](CO)C(=O)N[C@@H](CCCCN)C(=O)N[C@@H](CCCCN)C(=O)N[C@@H](CCCCN)C(=O)N[C@@H](CCCCN)C(=O)O)OC(=O)CC (some centres not stated)

EC50 [2]: 304 nM
Compound: CCCCCCCCCCCCCCCC(=O)OCCCC[C@H](CS[C@H](N)C(=O)N[C@@H](CO)C(=O)N[C@@H](CCCCN)C(=O)N[C@@H](CCCCN)C(=O)N[C@@H](CCCCN)C(=O)N[C@@H](CCCCN)C(=O)N[C@@H](CO)C(=O)N[C@@H](CC(C)C)C(=O)N[C@@H](CC(C)C)C(=O)N[C@@H](CCSC)C(=O)N[C@@H](Cc1c[nH]c2ccccc12)C(=O)N[C@H](C(=O)N[C@H](C(=O)N[C@@H](CCC(N)=O)C(=O)N[C@H](C(=O)O)C(C)C)[C@@H](C)O)[C@@H](C)CC)OC(=O)CCCCCCCCCCCCCCC

Activity [1]: 0%
Compound: CCCCCC(=O)N[C@H](CSCC(COC(=O)CCCCC)OC(=O)CCCCC)C(=O)N[C@@H](CO)C(=O)N[C@@H](CCCCN)C(=O)N[C@@H](CCCCN)C(=O)N[C@@H](CCCCN)C(=O)N[C@@H](CCCCN)C(=O)O (some centres not stated)

Activity ([1]; filed as agonist): > 100%
Compound: CCCCCCCCCCCCCCCC(=O)OCC(CSC[C@@H](NC(=O)CCCCC)C(=O)N[C@@H](CO)C(=O)N[C@@H](CCCCN)C(=O)N[C@@H](CCCCN)C(=O)N[C@@H](CCCCN)C(=O)N[C@@H](CCCCN)C(=O)O)OC(=O)CCCCCCCCCCCCCCC (some centres not stated)

Activity ([1]; filed as agonist): > 100%
Compound: CCCCCCCCCCCCCCCC(=O)OCC(CSC[C@@H](NC(=O)CCCCCCCCC)C(=O)N[C@@H](CO)C(=O)N[C@@H](CCCCN)C(=O)N[C@@H](CCCCN)C(=O)N[C@@H](CCCCN)C(=O)N[C@@H](CCCCN)C(=O)O)OC(=O)CCCCCCCCCCCCCCC (some centres not stated)

Activity [1]: 11%
Compound: CCCCCC(=O)N[C@H](CSCC(COC(=O)CC)OC(=O)CC)C(=O)N[C@@H](CO)C(=O)N[C@@H](CCCCN)C(=O)N[C@@H](CCCCN)C(=O)N[C@@H](CCCCN)C(=O)N[C@@H](CCCCN)C(=O)O (some centres not stated)

Activity [1]: 0%
Compound: CCCCCCCCCCCCCC(=O)N[C@H](CSCC(COC(=O)CCCCC)OC(=O)CCCCC)C(=O)N[C@@H](CO)C(=O)N[C@@H](CCCCN)C(=O)N[C@@H](CCCCN)C(=O)N[C@@H](CCCCN)C(=O)N[C@@H](CCCCN)C(=O)O (some centres not stated)
